Measured values reported in patent publication US10975068B2, “6-aminopyridin-3-yl thiazoles as modulators of RORγT” (Janssen Pharmaceutica NV, priority 2016, dated 2021).
Read-outs that look alike come from different tables or passages of the source.

What was measured:
[1] = biological target: human RORγt ligand binding domain (RORγt LBD) (Homo sapiens (Human), UniProt P51449); test: RORγt ThermoFluor® assay (thermal shift binding); conditions: read-out: ThermoFluor® Assay, Kd
Summary of the method: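 His-tagged human RORγt LBD (0.065 mg/mL) with 60 μM 1,8-ANS in 100 mM Hepes pH 7.0, 10 mM NaCl, 2.5 mM GSH, 0.002% Tween-20 was heated at 1 °C/min.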

full-length human RORγt = full-length human RORγt (Homo sapiens (Human), UniProt P51449); test: RORγt (full-length human) reporter assay, Conditions B or C; type: cell-based; conditions: for RORγt (FL) Reporter Assay B or C, % inhibition (value marked *): marked *: footnote not given; for inhibition at 3 µM: at 3 μM compound concentration, read-out: RORγt (FL) Reporter Assay B or C, % inhibition
Summary of the method: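 HEK293T cells transiently co-transfected with GAL4-DBD–full-length human RORγt (nt 142-1635, NM_001001523.1) plus GAL4-firefly and CMV-Renilla luciferase reporters; compounds added 4-6 h post-transfection for 16-20 h in 1.3% FBS, 0.1% DMSO. Firefly signal normalized to DMSO and saturating reference compound, then to Renilla; IC50 from concentration plots.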

[2] = Conditions B or C, read-out: RORγt (FL) Reporter Assay B or C, IC50
[3] = read-out: RORγt (FL) Reporter Assay B or C, IC50
[4] = RORγt (FL) Reporter Assay B or C, IC50

Sequence of human RORγt ligand binding domain (RORγt LBD) (P51449 other isoform, or with tags, fused parts or gaps): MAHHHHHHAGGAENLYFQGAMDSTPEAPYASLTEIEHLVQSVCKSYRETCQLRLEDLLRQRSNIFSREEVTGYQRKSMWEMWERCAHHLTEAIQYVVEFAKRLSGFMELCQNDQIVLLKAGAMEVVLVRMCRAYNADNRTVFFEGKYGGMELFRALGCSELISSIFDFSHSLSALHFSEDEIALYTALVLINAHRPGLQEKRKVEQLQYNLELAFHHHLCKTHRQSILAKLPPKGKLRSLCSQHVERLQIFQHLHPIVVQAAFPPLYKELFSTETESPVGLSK
Sequence of full-length human RORγt (P51449 other isoform, or with tags, fused parts or gaps): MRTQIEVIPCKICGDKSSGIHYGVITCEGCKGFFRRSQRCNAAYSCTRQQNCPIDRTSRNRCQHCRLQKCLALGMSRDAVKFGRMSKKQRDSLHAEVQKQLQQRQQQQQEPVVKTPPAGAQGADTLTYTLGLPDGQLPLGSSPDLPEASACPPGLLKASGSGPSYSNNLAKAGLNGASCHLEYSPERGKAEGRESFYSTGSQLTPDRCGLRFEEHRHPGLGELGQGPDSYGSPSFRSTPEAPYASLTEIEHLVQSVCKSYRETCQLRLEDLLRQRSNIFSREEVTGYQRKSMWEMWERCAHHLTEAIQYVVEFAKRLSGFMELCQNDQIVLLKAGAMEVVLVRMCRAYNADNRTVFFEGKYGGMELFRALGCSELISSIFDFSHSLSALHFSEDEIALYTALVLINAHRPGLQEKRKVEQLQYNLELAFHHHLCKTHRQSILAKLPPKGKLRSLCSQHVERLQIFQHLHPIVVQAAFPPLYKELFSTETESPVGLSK

| SMILES | Kd [1] | IC50 (full-length human RORγt; [2]) | RORγt (FL) Reporter Assay B or C, % inhibition (value marked *) (full-length human RORγt; Conditions B or C) | inhibition at 3 µM (full-length human RORγt) | IC50 (full-length human RORγt; [3]) | also measured |
| --- | --- | --- | --- | --- | --- | --- |
| CC(C)(O)CNC(=O)c1nc(C(=O)N2C3CCC2CC3)c(-c2cnc(NC(C)(C)C3CC3)cc2C(F)F)s1 [Example 97, 4-((1s,4s)-7-Azabicyclo[2.2.1]heptane-7-carbonyl)-5-(6-((2-cyclopropylpropan-2-yl)amino)-4-(difluoromethyl)pyridin-3-yl)-N-(2-hydroxy-2-methylpropyl)thiazole-2-carboxamide] | 1.3 nM | 3.6 nM | 111* % | – | – | – |
| C[C@H]1CCCN1C(=O)c1nc(C(=O)NC(C)(C)C(C)(C)O)sc1-c1cnc(NC(C)(C)C)cc1C(F)(F)F [Example 342, 5-[6-(tert-Butylamino)-4-(trifluoromethyl)-3-pyridyl]-N-(2-hydroxy-1,1,2-trimethyl-propyl)-4-[(2S)-2-methylpyrrolidine-1-carbonyl]thiazole-2-carboxamide] | 5.7 nM | – | – | 103% | 40 nM | – |
| CC(C)(O)CNC(=O)c1nc(C(=O)N2C3CCC2CC3)c(-c2cnc(NC(C)(C)C)cc2C(F)(F)F)s1 [Example 79, 4-((1s,4s)-7-Azabicyclo[2.2.1]heptane-7-carbonyl)-5-(6-(tert-butylamino)-4-(trifluoromethyl)pyridin-3-yl)-N-(2-hydroxy-2-methylpropyl)thiazole-2-carboxamide] | 1.2 nM | 8.3 nM | 111* % | – | – | – |
| O=C(N[C@H]1CCC[C@@H]1O)c1nc(C(=O)N2C3CCC2CC3)c(-c2cnc(N[C@@H](C3CC3)C(F)(F)F)cc2C(F)F)s1 [Example 451, 4-(7-Azabicyclo[2.2.1]heptane-7-carbonyl)-5-[6-[[(1S)-1-cyclopropyl-2,2,2-trifluoro-ethyl]amino]-4-(difluoromethyl)-3-pyridyl]-N-[(1S,2S)-2-hydroxycyclopentyl]thiazole-2-carboxamide] | 0.29 nM | – | – | 99% | 290 nM | – |
| C[C@H](Nc1cc(C(F)F)c(-c2sc(C(=O)N[C@H]3CCC[C@@H]3O)nc2C(=O)N2C3CCC2CC3)cn1)C(F)(F)F [Example 293, 4-((1s,4s)-7-Azabicyclo[2.2.1]heptane-7-carbonyl)-5-(4-(difluoromethyl)-6-(((S)-1,1,1-trifluoropropan-2-yl)amino)pyridin-3-yl)-N-((1S,2S)-2-hydroxycyclopentyl)thiazole-2-carboxamide] | 2 nM | – | – | 94% | – | IC50 (full-length human RORγt; [4]): 13 nM |
| C[C@H](Nc1cc(C(F)F)c(-c2sc(C(=O)N[C@H](C)C(C)(C)O)nc2C(=O)N2CCC[C@@H]2C)cn1)C(F)(F)F [Example 200, 5-(4-(Difluoromethyl)-6-(((S)-1,1,1-trifluoropropan-2-yl)amino)pyridine-3-yl)-N—((R)-3-hydroxy-3-methylburan-2-yl)-4-((S)-2-methylpyrrolidine-1-carbonyl)thiazole-2-carboxamide] | 12 nM | 200 nM | 104* % | – | – | – |
| C[C@H]1CCCCN1C(=O)c1nc(C(=O)NCC(C)(C)O)sc1-c1cnc(NC(C)(C)C2CC2)cc1C(F)F [Example 88, (S)-5-(6-((2-Cyclopropylpropan-2-yl)amino)-4-(difluoromethyl)pyridin-3-yl)-N-(2-hydroxy-2-methylpropyl)-4-(2-methylpiperidine-1-carbonyl)thiazole-2-carboxamide] | 0.19 nM | 10 nM | 138* % | – | – | – |
| O=C(N[C@H]1CC[C@H](O)C1)c1nc(C(=O)N2C3CCC2CC3)c(-c2cnc(N[C@@H](C3CC3)C(F)(F)F)cc2C(F)F)s1 [Example 441, 4-((1s,4s)-7-Azabicyclo[2.2.1]heptane-7-carbonyl)-5-[6-[[(1S)-1-cyclopropyl-2,2,2-trifluoro-ethyl]amino]-4-(difluoromethyl)-3-pyridyl]-N-[(1S,3S)-3-hydroxycyclopentyl]thiazole-2-carboxamide] | 0.47 nM | – | – | 106% | – | IC50 (full-length human RORγt; [4]): 36 nM |
| C[C@H]1CCCN1C(=O)c1nc(C(=O)NCC(C)(C)O)sc1-c1cncc(NC2CCCCC2)c1C#N [Comparator Example 2, (S)-5-(4-Cyano-5-(cyclohexylamino)pyridin-3-yl)-N-(2-hydroxy-2-methylpropyl)-4-(2-methylpyrrolidine-1-carbonyl)thiazole-2-carboxamide, reference compound] | 5800 nM | – | – | – | – | IC50 (full-length human RORγt; HEK293T cells, read-out: RORγt (FL) Reporter Assay B or C, IC50): 3000 nM |
| C[C@H]1CCCCN1C(=O)c1nc(C(=O)NCC(C)(C)O)sc1-c1cnc(N[C@H](C)C(F)(F)F)cc1C(F)(F)F [Example 45, N-(2-Hydroxy-2-methylpropyl)-4-((S)-2-methylpiperidine-1-carbonyl)-5-(4-(trifluoromethyl)-6-(((R)-1,1,1-trifluoropropan-2-yl)amino)pyridin-3-yl)thiazole-2-carboxamide] | 0.62 nM | 10 nM | – | – | – | inhibition at 6 µM (full-length human RORγt; read-out: RORγt (FL) Reporter Assay B or C, % inhibition @ 6 μM, Conditions B or C, @ 6 μM): 111% |
| C[C@H]1CCCN1C(=O)c1nc(C(=O)N[C@H](C)C(C)(C)O)sc1-c1cnc(N[C@H](C)C(F)(F)F)cc1C(F)F [Example 306, 5-(4-(Difluoromethyl)-6-(((R)-1,1,1-trifluoropropan-2-yl)amino)pyridin-3-yl)-N—((R)-3-hydroxy-3-methylbutan-2-yl)-4-((S)-2-methylpyrrolidine-1-carbonyl)thiazole-2-carboxamide] | 10 nM | – | – | 104% | 130 nM | – |
| C[C@H]1CCCN1C(=O)c1nc(C(=O)NC2COC2)sc1-c1cnc(NC(C)(C)C)cc1C(F)(F)F [Example 259, 5-[6-(tert-Butylamino)-4-(trifluoromethyl)-3-pyridyl]-4-[(2S)-2-methylpyrrolidine-1-carbonyl]-N-(oxetan-3-yl)thiazole-2-carboxamide] | 3 nM | – | – | 101% | 25 nM | – |
| C[C@H]1CCCN1C(=O)c1nc(C(=O)NCC2(O)CCC2)sc1-c1cnc(NC(C)(C)C)cc1C(F)(F)F [Example 134, (S)-5-(6-(tert-Butylamino)-4-(trifluoromethyl)pyridin-3-yl)-N-((1-hydroxycyclobutyl)methyl)-4-(2-methylpyrrolidine-1-carbonyl)thiazole-2-carboxamide] | 1.2 nM | 14 nM | 108* % | – | – | – |

Further compounds by falling Kd [1], results first:

| Kd [1] | IC50 (full-length human RORγt; [2]) | RORγt (FL) Reporter Assay B or C, % inhibition (value marked *) (full-length human RORγt; Conditions B or C) | inhibition at 3 µM (full-length human RORγt) | IC50 (full-length human RORγt; [3]) | SMILES | also measured |
| --- | --- | --- | --- | --- | --- | --- |
| 20 nM | 100 nM | 108* % | – | – | C[C@H]1CCCN1C(=O)c1nc(C(=O)N2CC(C)(O)C2)sc1-c1cnc(NC(C)(C)C)cc1C(F)F [Example 149, [5-[6-(tert-Butylamino)-4-(difluoromethyl)-3-pyridyl]-2-(3-hydroxy-3-methyl-azetidine-1-carbonyl)thiazol-4-yl]-[(2S)-2-methylpyrrolidin-1-yl]methanone] | – |
| 17 nM | 310 nM | 96* % | – | – | C[C@H](Nc1cc(C(F)F)c(-c2sc(C(=O)N[C@H]3C[C@@H]3O)nc2C(=O)N2CCC[C@@H]2C)cn1)C(F)(F)F (single isomer, unassigned) [Example 158, 5-(4-(Difluoromethyl)-6-(((S)-1,1,1-trifluoropropan-2-yl)amino)pyridin-3-yl)-N-((1S*,2S*)-2-hydroxycyclopropyl)-4-((S)-2-methylpyrrolidine-1-carbonyl)thiazole-2-carboxamide] | – |
| 6 nM | 63 nM | 110* % | – | – | C[C@H]1CCCN1C(=O)c1nc(C(=O)NCC(C)(C)O)sc1-c1cnc(NCC(C)(C)C)cc1C(F)F [Example 113, (S)-5-(4-(Difluoromethyl)-6-(neopentylamino)pyridin-3-yl)-N-(2-hydroxy-2-methylpropyl)-4-(2-methylpyrrolidine-1-carbonyl)thiazole-2-carboxamide] | – |
| 3.2 nM | 35 nM | – | – | – | CC[C@@H](Nc1cc(C(F)F)c(-c2sc(C(=O)N[C@H](C)CO)nc2C(=O)N2CCC[C@@H]2C)cn1)C(F)(F)F [Example 206, 5-(4-(Difluoromethyl)-6-(((1R)-1-(trifluoromethyl)propyl)amino)-3-pyridyl)-N-((1R)-2-hydroxy-1-methyl-ethyl)-4-((2S)-2-methylpyrrolidine-1-carbonyl)thiazole-2-carboxamide] | RORγt (FL) Reporter Assay B or C, % inhibition (value marked ***) (full-length human RORγt; Conditions B or C, marked ***: footnote not given): 106*** % |
| 2.6 nM | – | – | 104% | 23 nM | C[C@H]1CCCN1C(=O)c1nc(C(=O)NC2(CO)COC2)sc1-c1cnc(NC(C)(C)C)cc1C(F)(F)F [Example 261, 5-[6-(tert-Butylamino)-4-(trifluoromethyl)-3-pyridyl]-N-[3-(hydroxymethyl)oxetan-3-yl]-4-[(2S)-2-methylpyrrolidine-1-carbonyl]thiazole-2-carboxamide] | – |
| 2.4 nM | – | – | 93% | 38 nM | C[C@H]1CCCN1C(=O)c1nc(C(=O)NC2CCS(=O)(=O)CC2)sc1-c1cnc(NC2(C)CCC2)cc1C(F)F [Example 324, (S)-5-(4-(Difluoromethyl)-6-((1-methylcyclobutyl)amino)pyridin-3-yl)-N-(1,1-dioxidotetrahydro-2H-thiopyran-4-yl)-4-(2-methylpyrrolidine-1-carbonyl)thiazole-2-carboxamide] | – |
